The values below come from PMC2606674, “Metabolism of no-carrier-added 2-[^18F]fluoro-L-tyrosine in rats” (BMC Medical Physics, 2008).

Where two headings read alike, the source gives them in different places.

On the set-up of series [1]: method as in PMID 2787848. The following applies: cited from earlier work.
Series [2] is described as follows: Biodistribution of radioactivity after i.v. injection in awake rats. Type of series: in vivo, rat. The method, then: All animal experiments were approved by the Ethical Committee at our institution. Chronic cannulations of rats (male, Sprague Dawley, 180–250 g) were performed in the abdominal aorta and in the vena cava under general anaesthesia (ketamine 35 mg/kg and medetomidin 0.35 mg/kg) following the procedure described by Lestage. The animals were allowed to recover for a minimum of 4 days before being used for metabolism studies. Most of them were injected with the tracer within the first week after surgery. Some of them were kept up to 4 weeks before injection. Twenty hours before the injection of the tracer, the food was removed from the cage. The arterial line was used for blood sampling and the other for i.v. injection of the tracer. The two lines were flushed with saline a few minutes before use in order to check potency. 14 rats (230–410 g) were injected with 20–325 MBq of n-c-a 2-[^18F]Tyr. The tracer was delivered as a bolus of maximum volume 0.75 ml in 15 s. […]
Radioactivity was measured in weighed fractions of plasma. […] The supernatant was analysed by HPLC. Radioactivity was measured in the organ samples and in one half of the three dissected parts of the brain. […] The supernatant was analysed by HPLC.
Radioactivity measurements of the biological samples and of the fractions collected during HPLC were performed with a NaI counter (Cobra II autogamma, Packard).

The subject of series [3] is cerebral proteins. More on the design: method as in PMID 2787848. The following applies: mouse cortex; cited from earlier work.
For series [4], the system named is cerebral proteins. Kind of series: Incorporation into proteins (TCA precipitation of brain regions) in rats. In kind it is in vivo, rat.
Protocol: Chronic cannulations of rats (male, Sprague Dawley, 180–250 g) were performed in the abdominal aorta and in the vena cava under general anaesthesia (ketamine 35 mg/kg and medetomidin 0.35 mg/kg) following the procedure described by Lestage [14]. The animals were allowed to recover for a minimum of 4 days before being used for metabolism studies. Most of them were injected with the tracer within the first week after surgery. Some of them were kept up to 4 weeks before injection. Twenty hours before the injection of the tracer, the food was removed from the cage. The arterial line was used for blood sampling and the other for i.v. injection of the tracer. The two lines were flushed with saline a few minutes before use in order to check potency. 14 rats (230–410 g) were injected with 20–325 MBq of n-c-a 2-[^18F]Tyr. The tracer was delivered as a bolus of maximum volume 0.75 ml in 15 s. Samples of blood were obtained via the arterial cannula during the first minutes after the injection and at different times (15, 30, 45, 60 and/or 90 minutes) thereafter. The line was flushed with saline between each sample to avoid any loss of potency and to ensure the homogeneity of the next sample. The animals (n = number of rats) were sacrificed after 30 (n = 2), 60 (n = 5), 90 (n = 3) or 120 (n = 4) minutes. After the final time point, samples of blood were taken and the major organs were dissected. The brain was dissected to obtain striatum, cortex and cerebellum.
Trichloroacetic acid (TCA) was used to precipitate the proteins from biological samples in order to assay the radioactive content associated with proteins and to perform a chromatographic analysis of the radioactive compounds in solution in the supernatant after centrifugation. The solution used for the precipitation was Na2S2O5 100 mg, NaEDTA.2H2O 10 mg, TCA 20 g, dissolved in water up to 100 ml.
Radioactivity was measured in weighed fractions of plasma. For intermediate and final plasma samples, proteins were precipitated with TCA solution and separated by centrifugation (5°C, 5 minutes, 8000 RPM) before counting. The supernatant was analysed by HPLC. Radioactivity was measured in the organ samples and in one half of the three dissected parts of the brain. The second halves were sonicated with water (Sonics & Materials inc., Vibracell VXC-400). The proteins were precipitated with TCA solution and separated by centrifugation (5°C, 5 minutes, 8000 RPM) before counting. The supernatant was analysed by HPLC.

For the compound `N[C@@H](Cc1ccc(O)cc1[18F])C(=O)O` [2-[^18F]Tyr, 2-[^18F]fluoro-L-tyrosine], the “absolute uptake into brain tissue, mice” value in series [1] (at 40 min) is listed as ~ 1.3 %IA/g; in series [1] (at 60 min), ~ 2 %IA/g. For the same compound, in series [2] (awake rats, i.v. bolus, n-c-a tracer), the “absolute uptake into rat brain tissue” value is ~ 0.15 %IA/g. Moreover, the “passage of the blood-brain-barrier” value in series [2] (rats, brain uptake already high at 30 minutes post injection) was “rapidly passes the blood-brain-barrier”. Moreover, the “radioactivity associated with proteins, percentage of the total activity in the tissue” value in series [3] is listed as 84%; in series [4] (rat cerebellum, 60 minutes), 84%; in series [4] (rat cortex, 60 minutes), 85%; in series [4] (rat striatum, 60 min) it was 66%. The “incorporation into proteins, percentage of the total activity” value in series [4] (rats, non dopaminergic rich regions, 120 minutes) was approximately 90%.
